Patent US20260174721A1, “AGENT FOR RESTORING METAL HOMEOSTASIS” (Oxford Antibiotic Group GmbH, priority 2022, published 2026)
Where two headings read alike, the source gives them in different places.

Key:
[1] = test system: transgenic C. elegans strain CL2659; assay: β-amyloid test system: delay of paralysis in transgenic C. elegans strain CL2659 (Alzheimer testing); assay type: in vivo, Caenorhabditis elegans; details: CL2659 stage L3 larvae, 48 hours, tested at 1 mg/ml, 100 μg/ml, 10 μg/ml, — = no effect even at 1 mg/ml; for minimal effective concentration: Caenorhabditis elegans, read-out: Alzheimer: concentration range in which a delay in paralysis was observed
Experimental: For this purpose, stage L3 worm larvae were used at a density of 10-20 worms per well. The expression of β-amyloid in the muscle cells was induced by increasing the temperature, and the associated paralysis was recorded at regular intervals until the end of the test after 48 hours.
(§1) For this purpose, the above substances were tested at concentrations of 1 mg/ml, 100 μg/ml, and 10 μg/ml in comparison with quercetin as a […] control.

Caenorhabditis elegans = assay: C. elegans nematode assay, overall rating over the Alzheimer and Parkinson tests; assay type: in vivo; details: for minimal effective concentration: Caenorhabditis elegans, read-out: Score
Experimental: The substances (1) to (41) and (101) to (108), prepared in the above synthesis examples or purchased, were tested for their potential suitability as an agent for treating Alzheimer's disease in a 96-well procedure in the initially mentioned screening assay using the nematode Caenorhabditis elegans (Pretsch et al., see above) in a standardized β-amyloid test system using the transgenic C. elegans strain CL2659. For this purpose, stage L3 worm larvae were used at a density of 10-20 worms per well. The expression of β-amyloid in the muscle cells was induced by increasing the temperature, and the associated paralysis was recorded at regular intervals until the end of the test after 48 hours.
as §1
(§2) The same substances as above were tested in a 96-well procedure in the initially mentioned screening assay using the nematode Caenorhabditis elegans (Pretsch et al., see above) in a standardized α-synuclein test system using the transgenic C. elegans strain NL5901 for their potential suitability as an agent for treating Parkinson's disease. This worm strain expresses human α-synuclein bound to green fluorescent protein (GFP) in all muscle cells. GFP labeling allows a direct detection of expressed protein levels using a multiplate reader for 24 to 48 hours.
(§3) For this purpose, the substances were again tested at concentrations of 1 mg/ml, 100 μg/ml, and 10 μg/ml, but this time in comparison to the initially mentioned Parkinson therapeutic agent levodopa as a control.

[2] = test system: transgenic C. elegans strain NL5901; assay: α-synuclein test system: reduction of α-synuclein-GFP expression in transgenic C. elegans strain NL5901 (Parkinson testing); assay type: in vivo, Caenorhabditis elegans; details: NL5901, GFP readout 24 to 48 hours, tested at 1 mg/ml, 100 μg/ml, 10 μg/ml, — = no effect even at 1 mg/ml; for minimal effective concentration: Caenorhabditis elegans, read-out: Parkinson: concentration range in which a reduction in α-synuclein expression was detectable
Experimental: as §2, §3

[3] = rating from the effective concentration in both tests

Row | SMILES | minimal effective concentration [1] | minimal effective concentration (Caenorhabditis elegans; [3]) | minimal effective concentration [2] | minimal effective concentration (Caenorhabditis elegans) | also measured
1 | O=C(O)CC(=O)O [(1), malonic acid] | > 100 µg/mL | > 100 µg/mL | > 100 µg/mL |  | concentration from which the compound was effective (Caenorhabditis elegans; both tests): > 100 µg/mL
2 | NC(=O)CC(N)=O [(2), malonic acid diamide] | > 10 µg/mL | 10 to 100 µg/mL | > 10 µg/mL |  | 
3 | O=C([O-])CC(=O)[O-].[Na+].[Na+] [(3), disodium malonate] |  |  |  |  | Alzheimer: concentration range in which a delay in paralysis was observed [1]: >10 µg/mL; Score (Caenorhabditis elegans; [3]): ++ (a compound that is already effective at a concentration >10 μg/ml and therefore rated “++”); Parkinson: concentration range in which a reduction in α-synuclein expression was detectable [2]: >10 µg/mL
4 | COC(=O)CC(=O)OC [(4), malonic acid dimethyl ester] | > 10 µg/mL | 10 to 100 µg/mL | > 10 µg/mL |  | 
5 | COC(=O)CC(=O)[O-].[K+] [(5), malonic acid methyl ester potassium salt] |  |  |  | 10 to 100 µg/mL | 
6 | COC(=O)CC(N)=O [(6), malonic acid methyl ester amide] |  |  |  |  | Alzheimer: concentration range in which a delay in paralysis was observed [1]: >100 µg/mL; Score (Caenorhabditis elegans; [3]): + (a compound that is only effective above 100 μg/ml and therefore rated “+”); Parkinson: concentration range in which a reduction in α-synuclein expression was detectable [2]: >100 µg/mL
7 | NCCCNC(=O)CC(=O)O [(7), N-(3-aminopropyl)malonic acid amide] | > 100 µg/mL | > 100 µg/mL | > 100 µg/mL |  | 
8 | CCOC(=O)CC(=O)OC12CC3CC(CC(C3)C1)C2 [(9), malonic acid adamantan-1-yl ethyl ester] | > 10 µg/mL | 10 to 100 µg/mL | > 10 µg/mL |  | 
9 | O=C(O)CC(=O)OC12CC3CC(CC(C3)C1)C2 [(10), malonic acid adamantan-1-yl ester N-(3-aminopropyl)amide] | > 10 µg/mL | 10 to 100 µg/mL | > 10 µg/mL |  | 
10 | CN(CCCN)C(=O)CC(=O)OC12CC3CC(CC(C3)C1)C2 [(11), malonic acid adamantan-1-yl ester N-(3-aminopropyl)-N-methylamide] | > 10 µg/mL | 10 to 100 µg/mL | > 10 µg/mL |  | 
11 | O=C(CC(=O)N1CCNCC1)OC12CC3CC(CC(C3)C1)C2 [(12), malonic acid adamantan-1-yl ester piperazine amide] |  |  |  | 10 to 100 µg/mL | 
12 | NCCCC(=O)N1CCN(C(=O)CC(=O)OC23CC4CC(CC(C4)C2)C3)CC1 [(13), malonic acid adamantan-1-yl ester 4-(4-aminobutyryl)piperazine amide] | > 10 µg/mL | 10 to 100 µg/mL | > 10 µg/mL |  | 
13 | NC1CCN(C(=O)CC(=O)OC23CC4CC(CC(C4)C2)C3)CC1 [(14), malonic acid adamantan-1-yl ester 4-aminopiperidine amide] | > 10 µg/mL | 10 to 100 µg/mL | > 10 µg/mL |  | 
14 | NCCCC(=O)NC1CCN(C(=O)CC(=O)OC23CC4CC(CC(C4)C2)C3)CC1 [(15), malonic acid adamantan-1-yl ester (4-(4-aminobutyryl)amino)piperidine amide] | > 10 µg/mL | 10 to 100 µg/mL | > 10 µg/mL |  | 
15 | COC(=O)CC(=O)NC12CC3CC(CC(C3)C1)C2 [(16), malonic acid methyl ester N-(adamantan-1-yl)amide] | > 10 µg/mL | 10 to 100 µg/mL | > 10 µg/mL |  | 
16 | O=C(O)CC(=O)NC12CC3CC(CC(C3)C1)C2 [(17), N-(adamantan-1-yl)malonic acid amide] | > 10 µg/mL | 10 to 100 µg/mL | > 10 µg/mL |  | 
17 | NCCCNC(=O)CC(=O)NC12CC3CC(CC(C3)C1)C2 [(18), N-adamantan-1-yl-N′-(3-aminopropyl)malonic acid diamide] | > 100 µg/mL | > 100 µg/mL | > 100 µg/mL |  | 
18 | CN(CCCN)C(=O)CC(=O)NC12CC3CC(CC(C3)C1)C2 [(19), N-adamantan-1-yl-N′-(3-aminopropyl)-N′-methyl malonic acid diamide] | > 10 µg/mL | 10 to 100 µg/mL | > 10 µg/mL |  | 

Row | SMILES | minimal effective concentration [1] | minimal effective concentration (Caenorhabditis elegans; [3]) | minimal effective concentration [2] | minimal effective concentration (Caenorhabditis elegans) | also measured
19 | NCCCNC(=O)CC(=O)N1CCOCC1 [(22), N-(3-aminopropyl)-N′-morpholine malonic acid diamide] |  |  |  | 10 to 100 µg/mL | 
20 | NCCCNC(=O)CC(=O)N1CCCCC1 [(23), N-(3-aminopropyl)-N′-piperidine malonic acid diamide] |  |  |  | 10 to 100 µg/mL | 
21 | O=C(CC(=O)N1CCN(Cc2cccc(C(F)(F)F)c2)CC1)OC12CC3CC(CC(C3)C1)C2 [(29), malonic acid adamantan-1-yl ester 4-(3-trifluoromethylbenzyl)piperazine amide] |  |  |  | 10 to 100 µg/mL | 
22 | O=C(CC(=O)N1CCN(Cc2cccc(F)c2)CC1)OC12CC3CC(CC(C3)C1)C2 [(30), malonic acid adamantan-1-yl ester 4-(3-fluorobenzyl)piperazine amide] |  |  |  | 10 to 100 µg/mL | 
23 | COc1ccccc1N1CCN(C(=O)CC(=O)OC23CC4CC(CC(C4)C2)C3)CC1 [(31), malonic acid adamantan-1-yl ester 4-(2-methoxyphenyl)piperazine amide] |  |  |  | 10 to 100 µg/mL | 
24 | CC12CC3CC(C)(C1)CC(NC(=O)CC(=O)N1CCNCC1)(C3)C2 [(35), N-(3,5-dimethyladamantan-1-yl)-N′-piperazine malonic acid diamide] |  |  |  | 10 to 100 µg/mL | 
25 | CC12CC3CC(C)(C1)CC(NC(=O)CC(=O)N1CCN(Cc4cccc(C(F)(F)F)c4)CC1)(C3)C2 [(36), N-(3,5-dimethyladamantan-1-yl)-N′-4-(3-trifluoromethylbenzyl)piperazine malonic acid diamide] |  |  |  | 10 to 100 µg/mL | 
26 | CC12CC3CC(C)(C1)CC(NC(=O)CC(=O)N1CCN(Cc4cccc(F)c4)CC1)(C3)C2 [(37), N-(3,5-dimethyladamantan-1-yl)-N′-4-(3-fluorobenzyl)piperazine malonic acid diamide] |  |  |  | 10 to 100 µg/mL | 
27 | COc1ccc(N2CCN(C(=O)CC(=O)NC34CC5CC(C)(CC(C)(C5)C3)C4)CC2)cc1 [(39), N-(3,5-dimethyladamantan-1-yl)-N′-4-(4-methoxyphenyl)piperazine malonic acid diamide] |  |  |  | 10 to 100 µg/mL | 
28 | COc1ccc(N2CCN(C(=O)CC(=O)NC34CC5CC(C)(CC(C)(C5)C3)C4)CC2)c(OC)c1 [(40), N-(3,5-dimethyladamantan-1-yl)-N′-4-(2,4-dimethoxyphenyl)piperazine malonic acid diamide] |  |  |  | 10 to 100 µg/mL | 
29 | CC(C)(C(=O)O)C(=O)O [(101), Dimethyl malonic acid, reference compound] |  |  |  |  | efficacy in the C. elegans assay (Caenorhabditis elegans; both tests): neither dimethyl malonic acid (101) nor dimethyl malonic acid dimethyl ester (102) proved to be effective; Score (Caenorhabditis elegans; [3]): −
30 | COC(=O)C(C)C(=O)OC [(102), Methyl malonic acid dimethyl ester, reference compound] |  |  |  |  | efficacy in the C. elegans assay (Caenorhabditis elegans; both tests): neither dimethyl malonic acid (101) nor dimethyl malonic acid dimethyl ester (102) proved to be effective; Score (Caenorhabditis elegans; [3]): −
31 | NCCCNC(=O)C12CC3CC(CC(C3)C1)C2 [(103), 1-Adamantane carboxylic acid-N-(3-aminopropyl)amide, reference compound] |  |  |  |  | Score (Caenorhabditis elegans; [3]): −
32 | CC(C)(C)OC(=O)NCCCN [(104), 3-Aminopropyl carbamic acid tert-butyl ester, reference compound] |  |  |  |  | Score (Caenorhabditis elegans; [3]): −
33 | CNCCCNC(=O)OC(C)(C)C [(105), 3-(Methylamino)propyl carbamic acid tert-butyl ester, reference compound] |  |  |  |  | Score (Caenorhabditis elegans; [3]): −
34 | OC12CC3CC(CC(C3)C1)C2 [(106), 1-Adamantanol, reference compound] |  |  |  |  | Score (Caenorhabditis elegans; [3]): −
35 | NC12CC3CC(CC(C3)C1)C2 [(107), 1-Adamantanamine, reference compound] |  |  |  |  | Score (Caenorhabditis elegans; [3]): −
36 | NCCCNC(=O)CC(=O)N1CCCc2ccccc21 [(108), N-(3-aminopropyl)-N′-tetrahydroquinoline malonic acid diamide] |  |  |  |  | efficacy in the C. elegans assay (Caenorhabditis elegans; both tests): ineffectiveness; Score (Caenorhabditis elegans; [3]): −
